We go through 36 compounds from US9187490B2, “Dimeric IAP inhibitors” (TetraLogic Pharmaceuticals Corporation, priority 2005, dated 2015).

SMILES strings stand for the structures. Some results are limits rather than exact numbers.

T1 sequence (P98170 241-356 limits assumed): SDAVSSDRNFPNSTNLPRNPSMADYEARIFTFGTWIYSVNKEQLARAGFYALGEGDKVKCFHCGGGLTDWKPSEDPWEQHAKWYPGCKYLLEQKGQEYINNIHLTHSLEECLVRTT

The first assay has as its target T1, XIAP-BIR3 (Homo sapiens, UniProt P98170).
T1 construct: 40 nM of XIAP-BIR3 for 15 min at RT
The assay can be described thus: XIAP BIR-3 fluorescence polarization binding assay. To be noted: 5 nM AbuRPF-K(5-Fam)-NH2, 40 nM XIAP-BIR3, 15 min RT, pH 7.5; read-out: KD Range. The method, then: Following incubation, the polarization values (mP) were measured on a Victor^2V using a 485 nm excitation filter and a 520 nm emission filter. IC50 values were determined from the plot using nonlinear least-squares analysis using GraphPad Prism.
A general note: Polarisation of emitted light reports the rotation of a fluorescent probe.
As a reminder, the Kd is the concentration at which binding is half-saturated. `CN[C@@H](C)C(=O)N[C@H](C(=O)N1C[C@H](O)C[C@H]1Cc1c(-c2ccc(-c3[nH]c4ccccc4c3C[C@@H]3C[C@@H](O)CN3C(=O)[C@@H](NC(=O)[C@H](C)NC)C(C)C)cc2)[nH]c2ccccc12)C(C)C` [Entry 37]: the Kd fell in the range of 100 to 1000 nM.
Consider `CN[C@@H](C)C(=O)N[C@H](C(=O)N1CCC[C@H]1Cc1c(-c2ccc(-c3[nH]c4cc(F)ccc4c3C[C@@H]3CCCN3C(=O)[C@@H](NC(=O)[C@H](C)NC)C3CCCCC3)cc2)[nH]c2cc(F)ccc12)C1CCCCC1` [Entry 38], for which the Kd was less than 100 nM.
On the same count and under the same terms, as for `C[C@H](N)C(=O)N[C@H](C(=O)N1CCC[C@H]1Cc1c(-c2ccc(-c3[nH]c4cc(F)ccc4c3C[C@@H]3CCCN3C(=O)[C@@H](NC(=O)[C@H](C)N)C3CCCCC3)cc2)[nH]c2cc(F)ccc12)C1CCCCC1` [Entry 39], the figure is less than 100 nM.
Still for that read-out and setting: as for `CN[C@@H](C)C(=O)N[C@H](C(=O)N1C[C@@H](O)C[C@H]1Cc1c(-c2ccc(-c3[nH]c4ccc(F)cc4c3C[C@@H]3C[C@H](O)CN3C(=O)[C@@H](NC(=O)[C@H](C)NC)C(C)C)cc2)[nH]c2ccc(F)cc12)C(C)C` [Entry 40], the figure is 100 to 1000 nM; as for `CN[C@@H](C)C(=O)N[C@H](C(=O)N1C[C@@H](O)C[C@H]1Cc1c(-c2ccc(-c3[nH]c4ccc(F)cc4c3C[C@@H]3C[C@H](O)CN3C(=O)[C@@H](NC(=O)[C@H](C)NC)C(C)(C)C)cc2)[nH]c2ccc(F)cc12)C(C)(C)C` [Entry 41], less than 100 nM; as for `CN[C@@H](C)C(=O)N[C@H](C(=O)N1CCC[C@H]1Cc1c(-c2ccc(-c3c(C[C@@H]4CCCN4C(=O)[C@@H](NC(=O)[C@H](C)N)[C@@H](C)O)c4ccc(F)cc4n3CCO)cc2)n(CCO)c2cc(F)ccc12)[C@@H](C)O` [Entry 43], less than 100 nM.
The same measure, in the same setting: as for `CN[C@@H](C)C(=O)N[C@H](C(=O)N1CCC[C@H]1Cc1c(-c2ccc(-c3c(C[C@@H]4CCCN4C(=O)[C@@H](NC(=O)[C@H](C)NC)[C@@H](C)O)c4ccc(F)cc4n3CCO)cc2)n(CCO)c2cc(F)ccc12)[C@@H](C)O` [Entry 44], the figure is less than 100 nM.
For `CN[C@@H](C)C(=O)N[C@H](C(=O)N1CCC[C@H]1Cc1c(-c2ccc(-c3c(C[C@@H]4CCCN4C(=O)[C@@H](NC(=O)[C@H](C)N)[C@@H](C)O)c4ccc(F)cc4n3CCOC(C)=O)cc2)n(CCOC(C)=O)c2cc(F)ccc12)[C@@H](C)O` [Entry 45], the Kd is less than 100 nM.
On the same count and under the same terms, as for `CN[C@@H](C)C(=O)N[C@H](C(=O)N1CCC[C@H]1Cc1c(-c2ccc(-c3c(C[C@@H]4CCCN4C(=O)[C@@H](NC(=O)[C@H](C)NC)C(C)C)c4ccc(F)cc4n3CCO)cc2)n(CCO)c2cc(F)ccc12)C(C)C` [Entry 46], the figure is less than 100 nM; as for `CN[C@@H](C)C(=O)N[C@H](C(=O)N1CCC[C@H]1Cc1c(-c2ccc(-c3c(C[C@@H]4CCCN4C(=O)[C@@H](NC(=O)[C@H](C)NC)C(C)C)c4ccc(F)cc4n3CCOC(C)=O)cc2)n(CCOC(C)=O)c2cc(F)ccc12)C(C)C` [Entry 47], less than 100 nM; as for `CN[C@@H](C)C(=O)N[C@H](C(=O)N1CCC[C@H]1Cc1c(-c2ccc(-c3c(C[C@@H]4CCCN4C(=O)[C@@H](NC(=O)[C@H](C)NC)C(C)(C)C)c4ccc(F)cc4n3CCOC(C)=O)cc2)n(CCOC(C)=O)c2cc(F)ccc12)C(C)(C)C` [Entry 49], less than 100 nM.
As for `CN[C@@H](C)C(=O)N[C@H](C(=O)N1CCC[C@H]1Cc1c(-c2ccc(-c3c(C[C@@H]4CCCN4C(=O)[C@@H](NC(=O)[C@H](C)NC)[C@@H](C)O)c4ccc(F)cc4n3CCOC)cc2)n(CCOC)c2cc(F)ccc12)[C@@H](C)O` [Entry 50], the dissociation constant (Kd) was less than 100 nM.
The same measure, in the same setting: as for `CN[C@@H](C)C(=O)N[C@H](C(=O)N1CCC[C@H]1Cc1c(-c2ccc(-c3c(C[C@@H]4CCCN4C(=O)[C@@H](NC(=O)[C@H](C)NC)C(C)(C)C)c4ccc(F)cc4n3CCOC)cc2)n(CCOC)c2cc(F)ccc12)C(C)(C)C` [Entry 51], the figure is less than 100 nM.
On the same count and under the same terms, as for `CN[C@@H](C)C(=O)N[C@H](C(=O)N1CCC[C@H]1Cc1c(-c2ccc(-c3c(C[C@@H]4CCCN4C(=O)[C@@H](NC(=O)[C@H](C)NC)C(C)C)c4ccc(F)cc4n3CCOC)cc2)n(CCOC)c2cc(F)ccc12)C(C)C` [Entry 52], the figure is less than 100 nM; as for `COCCn1c(-c2ccc(-c3c(C[C@@H]4CCCN4C(=O)[C@@H](NC(=O)[C@H](C)N)C(C)C)c4ccc(F)cc4n3CCOC)cc2)c(C[C@@H]2CCCN2C(=O)[C@@H](NC(=O)[C@H](C)N)C(C)C)c2ccc(F)cc21` [Entry 53], less than 100 nM.
The same measure, in the same setting: as for `CN[C@@H](C)C(=O)N[C@H](C(=O)N1CCC[C@H]1Cc1c(-c2ccc(-c3c(C[C@@H]4CCCN4C(=O)[C@@H](NC(=O)[C@H](C)NC)C(C)(C)C)c4cc(F)ccc4n3CCO)cc2)n(CCO)c2ccc(F)cc12)C(C)(C)C` [Entry 54], the figure is less than 100 nM.
With `CN[C@@H](C)C(=O)N[C@H](C(=O)N1CCC[C@H]1Cc1c(-c2ccc(-c3c(C[C@@H]4CCCN4C(=O)[C@@H](NC(=O)[C@H](C)NC)C(C)C)c4cc(F)ccc4n3CCO)cc2)n(CCO)c2ccc(F)cc12)C(C)C` [Entry 55], the Kd is less than 100 nM.
Still for that read-out and setting: as for `CN[C@@H](C)C(=O)N[C@H](C(=O)N1CCC[C@H]1Cc1c(-c2ccc(-c3c(C[C@@H]4CCCN4C(=O)[C@@H](NC(=O)[C@H](C)NC)[C@@H](C)O)c4cc(F)ccc4n3CCO)cc2)n(CCO)c2ccc(F)cc12)[C@@H](C)O` [Entry 56], the figure is less than 100 nM.
The same measure, in the same setting: as for `CN[C@@H](C)C(=O)N[C@H](C(=O)N1CCC[C@H]1Cc1c(-c2ccc(-c3c(C[C@@H]4CCCN4C(=O)[C@@H](NC(=O)[C@H](C)NC)C(C)C)c4ccc(F)cc4n3C)cc2)n(C)c2cc(F)ccc12)C(C)C` [Entry 57], the figure is less than 100 nM; as for `CN[C@@H](C)C(=O)N[C@H](C(=O)N1CCC[C@H]1Cc1c(-c2ccc(-c3c(C[C@@H]4CCCN4C(=O)[C@@H](NC(=O)[C@H](C)NC)[C@@H](C)O)c4ccc(F)cc4n3C)cc2)n(C)c2cc(F)ccc12)[C@@H](C)O` [Entry 58], less than 100 nM; as for `CN[C@@H](C)C(=O)N[C@H](C(=O)N1CCC[C@H]1Cc1c(-c2ccc(-c3c(C[C@@H]4CCCN4C(=O)[C@@H](NC(=O)[C@H](C)NC)C(C)(C)C)c4ccc(F)cc4n3C)cc2)n(C)c2cc(F)ccc12)C(C)(C)C` [Entry 59], less than 100 nM.
Still for that read-out and setting: as for `CN[C@@H](C)C(=O)N[C@H](C(=O)N1CCC[C@H]1Cc1c(-c2ccc(-c3c(C[C@@H]4CCCN4C(=O)[C@@H](NC(=O)[C@H](C)NC)C(C)C)c4ccc(F)cc4n3CCOC(C)=O)cc2)[nH]c2cc(F)ccc12)C(C)C` [Entry 64], the figure is less than 100 nM.
Take `CN[C@@H](C)C(=O)N[C@H](C(=O)N1CCC[C@H]1Cc1c(-c2ccc(-c3c(C[C@@H]4CCCN4C(=O)[C@@H](NC(=O)[C@H](C)NC)C(C)C)c4ccc(F)cc4n3CCO)cc2)[nH]c2cc(F)ccc12)C(C)C` [Entry 67]: the dissociation constant Kd was less than 100 nM.
Same read-out and setting: as for `CN[C@H](C)C(=O)N[C@H](C(=O)N1CCC[C@H]1Cc1c(-c2ccc(-c3c(C[C@@H]4CCCN4C(=O)[C@@H](NC(=O)[C@@H](C)NC)C(C)(C)C)c4ccc(F)cc4n3CCO)cc2)[nH]c2cc(F)ccc12)C(C)(C)C` [Entry 71], the figure is 100 to 1000 nM.

Staying with this assay, now noted: Example 4 series; read-out: KD Range.
Regarding `CNC(C)C(=O)NC(C(=O)N1CCCC1Cc1c(-c2[nH]c3cc(F)ccc3c2CC2CCCN2C(=O)C(NC(=O)C(C)NC)C(C)O)[nH]c2cc(F)ccc12)C(C)O` (stereo not drawn) [Entry 72], the Kd is less than 100 nM.
Same read-out and setting: as for `CN[C@@H](C)C(=O)N[C@H](C(=O)N1CCC[C@H]1Cc1c(-c2[nH]c3cc(F)ccc3c2C[C@@H]2CCCN2C(=O)[C@@H](NC(=O)[C@H](C)NC)C(C)C)[nH]c2cc(F)ccc12)C(C)C` [Entry 73], the figure is less than 100 nM; as for `CN[C@@H](C)C(=O)N[C@H](C(=O)N1CCC[C@H]1Cc1c(-c2[nH]c3cc(F)ccc3c2C[C@@H]2CCCN2C(=O)[C@@H](NC(=O)[C@H](C)N)C(C)C)[nH]c2cc(F)ccc12)C(C)C` [Entry 74], less than 100 nM.
Same read-out and setting: as for `CN[C@@H](C)C(=O)N[C@H](C(=O)N1CCC[C@H]1Cc1c(-c2[nH]c3ccc(F)cc3c2C[C@@H]2CCCN2C(=O)[C@@H](NC(=O)[C@H](C)NC)C(C)C)[nH]c2ccc(F)cc12)C(C)C` [Entry 75], the figure is less than 100 nM.
`CN[C@@H](C)C(=O)NCC(=O)N1CCC[C@H]1Cc1c(-c2[nH]c3cc(F)ccc3c2C[C@@H]2CCCN2C(=O)CNC(=O)[C@H](C)NC)[nH]c2cc(F)ccc12` [Entry 76]: the dissociation constant Kd lay in the range of 100 to 1000 nM.
Same read-out and setting: as for `CN[C@@H](C)C(=O)N[C@@H](C)C(=O)N1CCC[C@H]1Cc1c(-c2[nH]c3cc(F)ccc3c2C[C@@H]2CCCN2C(=O)[C@H](C)NC(=O)[C@H](C)NC)[nH]c2cc(F)ccc12` [Entry 77], the figure is 100 to 1000 nM.
Take `CNC(C)C(=O)NC(C(=O)N1CCCC1Cc1c(-c2[nH]c3cc(F)ccc3c2CC2CCCN2C(=O)C(NC(=O)C(C)NC)C(C)O)[nH]c2cc(F)ccc12)C(C)O` (stereo not drawn) [Entry 78]: the Kd is less than 100 nM.
Same read-out and setting: as for `CC[C@H](NC(=O)[C@H](C)NC)C(=O)N1CCC[C@H]1Cc1c(-c2[nH]c3cc(F)ccc3c2C[C@@H]2CCCN2C(=O)[C@H](CC)NC(=O)[C@H](C)NC)[nH]c2cc(F)ccc12` [Entry 79], the figure is less than 100 nM; as for `CNC(C)C(=O)NC(C(=O)N1CCCC1Cc1c(-c2[nH]c3ccc(F)cc3c2CC2CCCN2C(=O)C(NC(=O)C(C)NC)C(C)O)[nH]c2ccc(F)cc12)C(C)O` (stereo not drawn) [Entry 80], less than 100 nM; as for `CC(C)[C@H](NC(=O)CN)C(=O)N1CCC[C@H]1Cc1c(-c2[nH]c3cc(F)ccc3c2C[C@@H]2CCCN2C(=O)[C@@H](NC(=O)CN)C(C)C)[nH]c2cc(F)ccc12` [Entry 81], 100 to 1000 nM.
On the same count and under the same terms, as for `CCC(C)[C@H](NC(=O)[C@H](C)NC)C(=O)N1CCC[C@H]1Cc1c(-c2[nH]c3ccc(F)cc3c2C[C@@H]2CCCN2C(=O)[C@@H](NC(=O)[C@H](C)NC)C(C)CC)[nH]c2ccc(F)cc12` (stereo partly drawn) [Entry 82], the figure is less than 100 nM.
The same measure, in the same setting: as for `CN[C@@H](C)C(=O)N[C@H](C(=O)N1CCC[C@H]1Cc1c(-c2[nH]c3ccc(F)cc3c2C[C@@H]2CCCN2C(=O)[C@@H](NC(=O)[C@H](C)NC)C2CCCCC2)[nH]c2ccc(F)cc12)C1CCCCC1` [Entry 83], the figure is less than 100 nM.
